This data set relates to GENE-TOX genotoxicity assays, various organisms and cells. As to the kind of experiment: GENE-TOX mutagenicity studies. To be noted: for call: Assay Type: In vivo carcinogenicity studies.
Where [1] appears, read: Species/Cell Type: Human lymphocytes, Assay Type: Sister-chromatid exchange (SCE) in vitro, Assay Code: SCL+D, Dose Response: With dose response, Evaluation Type: Evaluation B (Post-1980).
[2] abbreviates: Species/Cell Type: Human, Assay Type: Sister-chromatid exchange (SCE) in vitro, Assay Code: SC1+D, Dose Response: With dose response, Evaluation Type: Evaluation B (Post-1980).
Setting [3] is: Species/Cell Type: Neurospora crassa, Assay Type: Forward gene mutation, Assay Code: NEF+, Evaluation Type: Evaluation A (Pre-1980).
The mark [4] stands for this setting: Species/Cell Type: Nonhuman, Assay Type: Sister-chromatid exchange (SCE) in vitro, Assay Code: SC2+D, Dose Response: With dose response, Evaluation Type: Evaluation B (Post-1980).
[5] abbreviates: Species/Cell Type: Vicia faba, Assay Type: Chromosome aberrations, Assay Code: VIC+, Evaluation Type: Evaluation A (Pre-1980).
The mark [6] stands for this setting: Species/Cell Type: Human, Assay Type: Sister-chromatid exchange (SCE) in vitro, Assay Code: SC1T, Evaluation Type: Evaluation B (Post-1980).
[7] abbreviates: Species/Cell Type: Salmonella typhimurium (one or more of the five standard strains: TA98, TA100, TA1535, TA1537, and TA1538), Assay Type: Histidine reverse gene mutation, Ames assay, Assay Code: SALT, Evaluation Type: Evaluation A (Pre-1980).
[8] abbreviates: Species/Cell Type: Salmonella typhimurium (one or more of the five standard strains: TA98, TA100, TA1535, TA1537, and TA1538), Assay Type: Histidine reverse gene mutation, Ames assay, Assay Code: SAL+*, Activation: With metabolic activation, Evaluation Type: Evaluation A (Pre-1980).
Where [9] appears, read: Species/Cell Type: Salmonella typhimurium (one or more of the five standard strains: TA98, TA100, TA1535, TA1537, and TA1538), Assay Type: Histidine reverse gene mutation, Ames assay, Assay Code: SAL-, Evaluation Type: Evaluation A (Pre-1980).
[10] abbreviates: Species/Cell Type: Escherichia coli polA (W3119 vs P3478), Assay Type: Rec-assay, DNA effects (bacterial DNA repair), Assay Code: RE1T, Evaluation Type: Evaluation A (Pre-1980).

The source made the active and inactive calls. The rule behind the calls is not given here.

For the molecule `O=P(N1CC1)(N1CC1)N1CC1`, the mutagenic call by setting is: (Species/Cell Type: Drosophila melanogaster, Assay Type: Sex-linked recessive lethal gene mutation, Assay Code: SRL+, Evaluation Type: Evaluation A (Pre-1980)) “active; positive”; (Species/Cell Type: Drosophila melanogaster, Sex: Male, Assay Type: Heritable translocation test, chromosome aberrations, Assay Code: DHT+, Evaluation Type: Evaluation A (Pre-1980)) “active; positive”; (Species/Cell Type: Human lymphocytes or leukocytes, Assay Type: Chromosome aberrations in vitro, Assay Code: CY7+, Evaluation Type: Evaluation A (Pre-1980)) “active; positive”; under setting [1], “active; positive”; under setting [2], “active; positive”; (Species/Cell Type: Mammalian germ cells, Sex: Male, Assay Type: Chromosome aberrations in vivo, Assay Code: CY9T, Evaluation Type: Evaluation A (Pre-1980)) “no conclusion”. For the same molecule, the mutagenic call runs as follows: (Species/Cell Type: Mouse, Sex: Male, Assay Type: Heritable translocation test, chromosome aberrations, Assay Code: HTT+, Evaluation Type: Evaluation A (Pre-1980)) “active; positive”; under setting [3], “active; positive”; (Species/Cell Type: Nonhuman, Assay Type: Chromosome aberrations in vitro, Assay Code: CY&+, Evaluation Type: Evaluation A (Pre-1980)) “active; positive”; under setting [4], “active; positive”; (Species/Cell Type: Rodents, Sex: Male, Assay Type: Dominant lethal test, Assay Code: DLT+, Evaluation Type: Evaluation A (Pre-1980)) “active; positive”; (Species/Cell Type: Schizosaccharomyces pombe, Assay Type: Reverse gene mutation, Assay Code: YEZ+, Evaluation Type: Evaluation A (Pre-1980)) “active; positive”. For the same molecule, under setting [5], the mutagenic call was “active; positive”. Further, the call (Species/Cell Type: Nonhuman, Assay Code: CCGT, Evaluation Type: Evaluation A (Pre-1980)) is recorded as “no conclusion”.

Consider `Nc1c(Cl)cc(-c2cc(Cl)c(N)c(Cl)c2)cc1Cl`, for which the mutagenic call (Species/Cell Type: Human diploid fibroblasts, Assay Type: Unscheduled DNA synthesis (UDS) in vitro, DNA effects, Assay Code: UDH+*, Activation: With metabolic activation, Evaluation Type: Evaluation A (Pre-1980)) is “active; positive”.

As to `CC(C)C[C@H](NC(=O)N[C@H](C(=O)N[C@@H](CCC(N)=O)C(=O)N[C@@H](C)C=O)[C@@H]1CCNC(N)=N1)C(=O)O`, the mutagenic call reads like this: under setting [6], “no conclusion”; (Species/Cell Type: Nonhuman, Assay Type: Sister-chromatid exchange (SCE) in vitro, Assay Code: SC2T, Evaluation Type: Evaluation B (Post-1980)) “no conclusion”.

As to `Cc1cc2ccccc2c2ccc3c(F)cccc3c12`, the mutagenic call under setting [7] is “no conclusion”.

As for `O[C@@H]1C=Cc2cc3ccc4ccccc4c3cc2[C@H]1O`, the mutagenic call runs as follows: under setting [4], “active; positive”; under setting [7], “no conclusion”.

Regarding `COc1cc([N+](=O)[O-])ccc1N=Nc1ccccc1`, under setting [7], the mutagenic call was “no conclusion”.

Turning to `CN[C@H]1C[C@H](O[C@H]2C[C@](O)(C(C)=O)Cc3c(O)c4c(c(O)c32)C(=O)c2c(OC)cccc2C4=O)O[C@@H](C)[C@H]1O`, under setting [8], the mutagenic call was “active; positive”.

Regarding `CC(=O)Nc1ccccc1`, the mutagenic call runs as follows: under setting [6], “no conclusion”; under setting [7], “no conclusion”; (Species/Cell Type: Salmonella typhimurium, Assay Type: Forward and reverse gene mutation, host-mediated assay, Assay Code: HMA-, Evaluation Type: Evaluation A (Pre-1980)) “inactive; negative”.

Regarding `CC1CS(=O)(=O)CCN1/N=C/c1ccc([N+](=O)[O-])o1` (configuration not stated), the mutagenic call (Species/Cell Type: Mammalian polychromatic erythrocytes, Assay Type: Micronucleus test, chromosome aberrations, Assay Code: MNT+, Evaluation Type: Evaluation B (Post-1980)) was “active; positive”.

`O=C(O)CNCP(=O)(O)O`: the mutagenic call by setting is: (Species/Cell Type: Human lymphocytes, Assay Type: Sister-chromatid exchange (SCE) in vitro, Assay Code: SCL+, Evaluation Type: Evaluation B (Post-1980)) “active; positive”; (Species/Cell Type: Human, Assay Type: Sister-chromatid exchange (SCE) in vitro, Assay Code: SC1+, Evaluation Type: Evaluation B (Post-1980)) “active; positive”.

In the case of `O=Nc1ccc2ccccc2c1`, under “Species/Cell Type: Salmonella typhimurium (one or more of the five standard strains: TA98, TA100, TA1535, TA1537, and TA1538), Assay Type: Histidine reverse gene mutation, Ames assay, Assay Code: SAL+, Evaluation Type: Evaluation A (Pre-1980)”, the mutagenic call was “active; positive”.

For `CCCCNC(=O)NS(=O)(=O)c1ccc(N)cc1`, the mutagenic call (Species/Cell Type: Nonhuman, Assay Type: Sister-chromatid exchange (SCE) in vivo, Assay Code: SC3T, Evaluation Type: Evaluation B (Post-1980)) is “no conclusion”.

Turning to `CCN(CC)CCOc1ccc(C(=C(Cl)c2ccccc2)c2ccccc2)cc1`, the mutagenic call is “no conclusion” (Species/Cell Type: Human, Sex: Male, Assay Type: Sperm morphology, Assay Code: SPHT, Evaluation Type: Evaluation A (Pre-1980)) and “no conclusion” (Species/Cell Type: Mammalian polychromatic erythrocytes, Assay Type: Micronucleus test, chromosome aberrations, Assay Code: MNTT, Evaluation Type: Evaluation B (Post-1980)).

As for `CCCCO`, the mutagenic call was “inactive; negative” (Species/Cell Type: Nonhuman, Assay Type: Sister-chromatid exchange (SCE) in vitro, Assay Code: SC2-, Evaluation Type: Evaluation A (Pre-1980)) and “inactive; negative” under setting [9].

`CN=NNc1ccccc1`: the mutagenic call under setting [3] was “active; positive”.

As to `CC(C)C(N)C(=O)O` (configuration not stated), the mutagenic call under setting [10] is “no conclusion”.

In the case of `c1ccc2c(c1)-c1cccc3cccc-2c13`, the mutagenic call by setting is: (Species/Cell Type: Chinese hamster ovary (CHO) cells, Assay Type: Forward gene mutation at the HPRT locus, Assay Code: CHO+*, Activation: With metabolic activation, Evaluation Type: Evaluation B (Post-1980)) “active; positive”; (Species/Cell Type: Fischer rat embryo (RLV/1706) cells, Assay Type: Cell transformation, viral enhanced, Assay Code: CTRT, Evaluation Type: Evaluation A (Pre-1980)) “no conclusion”; under setting [4], “active; positive”; (Species/Cell Type: Nonhuman, Assay Type: Sister-chromatid exchange (SCE) in vivo, Assay Code: SC3-, Evaluation Type: Evaluation B (Post-1980)) “inactive; negative”.

On to `Nc1ccc(S)cc1`, for which the mutagenic call (Species/Cell Type: Mouse, Sex: Male, Assay Type: Sperm morphology, Assay Code: SPI-, Evaluation Type: Evaluation A (Pre-1980)) was “inactive; negative”.

Regarding `O=c1[nH]c(=O)n([C@H]2C[C@H](O)[C@@H](COP(=O)(O)O)O2)cc1[N+](=O)[O-]`, the mutagenic call is, setting by setting: under setting [1], “active; positive”; under setting [2], “active; positive”.

In the case of `CCCN(CCC)c1c([N+](=O)[O-])cc(C(F)(F)F)cc1[N+](=O)[O-]`, the mutagenic call (Species/Cell Type: Bacillus subtilis (H17 vs M45), Assay Type: Rec-assay, spot test, DNA effects (bacterial DNA repair), Assay Code: REWT, Evaluation Type: Evaluation A (Pre-1980)) was “no conclusion”; the mutagenic call (Species/Cell Type: Drosophila melanogaster, Assay Type: Sex-linked recessive lethal gene mutation, Assay Code: SRL-, Evaluation Type: Evaluation A (Pre-1980)) is “inactive; negative”; the mutagenic call (Species/Cell Type: Escherichia coli WP2 UVRA, Assay Type: Tryptophan reverse gene mutation, Assay Code: WPU-*, Activation: With metabolic activation, Evaluation Type: Evaluation A (Pre-1980)) was “inactive; negative”; the mutagenic call under setting [10] is listed as “no conclusion”; the mutagenic call (Species/Cell Type: Human diploid fibroblasts, Assay Type: Unscheduled DNA synthesis (UDS) in vitro, DNA effects, Assay Code: UDH-, Evaluation Type: Evaluation A (Pre-1980)) was “inactive; negative”; the mutagenic call (Species/Cell Type: Neurospora crassa, Assay Type: Aneuploidy, chromosome aberrations, Assay Code: NEN+, Evaluation Type: Evaluation A (Pre-1980)) was “active; positive”. Further, the mutagenic call (Species/Cell Type: Nonhuman, Assay Type: Sister-chromatid exchange (SCE) in vitro, Assay Code: SC2+, Evaluation Type: Evaluation B (Post-1980)) was “active; positive”; the mutagenic call (Species/Cell Type: Saccharomyces cerevisiae, Assay Type: Mitotic recombination or gene conversion, Assay Code: YEH+/-*, Activation: With metabolic activation, Evaluation Type: Evaluation A (Pre-1980)) was “inactive; positive without activation, negative with activation”; the mutagenic call under setting [9] is “inactive; negative”; the mutagenic call under setting [5] was “active; positive”. For the same molecule, where the note is “Species/Cell Type: Nonhuman, Assay Code: CCG+L, Evaluation Type: Evaluation A (Pre-1980)”, the call is “active; positive”.

Consider `Clc1ccc(N=Nc2ccc(Cl)c(Cl)c2)cc1Cl`, for which the mutagenic call is “active; positive” (Species/Cell Type: Aspergillus nidulans, Assay Type: Forward gene mutation, Assay Code: ASF+, Evaluation Type: Evaluation A (Pre-1980)) and “active; positive” (Species/Cell Type: Rat primary hepatocytes, Assay Type: Unscheduled DNA synthesis (UDS) in vitro, DNA effects, Assay Code: UDP+D, Dose Response: With dose response, Evaluation Type: Evaluation A (Pre-1980)).

`c1ccc2c(c1)CCc1cc3ccc4c(c3cc1-2)CCCC4`: the mutagenic call under setting [8] is “active; positive”.
